Experiments:
[1] = test system: HCT-8; assay: Cytotoxicity / anti-proliferation assay (CCK-8), HCT-8; format: cell-based; conditions: Homo sapiens, 72 h, CCK-8 kit
Procedure: (§1) Then the cells were exposed to the different inhibitors with various concentrations for 72 h. […] EC50s were calculated using GraphPad Prizm statistical package with sigmoidal variable slope dose response curve fit.
(§2) Cell anti-proliferation assays were performed to determine the toxicity of these inhibitors. […] These compounds were further evaluated against the control cell line HEK293 to test their toxicity with a non-cancerous cell line.

[2] = target: T1, Mouse histone methyltransferase G9a (969-1263) (Mus musculus, UniProt Q9Z148); assay: MALDI-TOF methylation study of G9a inhibition; format: biochemical; conditions: inhibitors at 5 μM concentration for 30 min
T1 construct: The 6His-sumo mG9a (969-1263) protein was purified using the following procedure; 6His-sumo (cleaved yes); made in house; host or cells: Escherichia coli BL21 (DE3)
T1 sequence (Q9Z148 969-1263): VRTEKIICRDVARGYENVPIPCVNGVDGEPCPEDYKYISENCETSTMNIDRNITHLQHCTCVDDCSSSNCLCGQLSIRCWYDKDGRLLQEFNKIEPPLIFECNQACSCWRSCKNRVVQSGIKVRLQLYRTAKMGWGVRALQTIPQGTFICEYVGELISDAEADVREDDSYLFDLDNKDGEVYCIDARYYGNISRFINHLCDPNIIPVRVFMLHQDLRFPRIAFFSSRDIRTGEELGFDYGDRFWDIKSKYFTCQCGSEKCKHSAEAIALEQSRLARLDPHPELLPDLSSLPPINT

[3] = test system: A549; assay: Cytotoxicity / anti-proliferation assay (CCK-8), A549; format: cell-based; conditions: Homo sapiens, 72 h, CCK-8 kit
Procedure: as §1, §2

[4] = test system: HDAC; assay: Cell based homogenous HDAC assay, Hela; conditions: read-out: IC50-HDAC Hela; Hela cells, mean ± SD of triplicate
Procedure: (§3) After 24 h, 9 μl inhibitors with different concentration were added to the HeLa cells and incubation was continued for 3 h under cell culture conditions. After this treatment period, 10 μl of a 2 mM stock solution of the substrate Boc-K(Ac)-AMC was added into the 96 well plates with Hela cells and inhibitors. […] A549 and K562 cell lines used the same method, respectively. IC50s were calculated using GraphPad Prizm statistical package with sigmoidal variable slope dose response curve fit.
(§4) Boc-K(Ac)-AMC was used as a cell-permeable HDAC substrate, as after deacetylation it is cleaved by trypsin to release the florescent 7-amino-4-methylcoumarin (AMC).

[5] = test system: HDAC; assay: Cell based homogenous HDAC assay, A549; conditions: read-out: IC50-HDAC A549; A549 cells, mean ± SD of triplicate
Procedure: as §3, §4

[6] = test system: HDAC; assay: Cell based homogenous HDAC assay, K562; conditions: read-out: IC50-HDAC K562; K562 cells, mean ± SD of triplicate
Procedure: as §3, §4

[7] = test system: MCF-7; assay: Cytotoxicity / anti-proliferation assay (CCK-8), MCF-7; format: cell-based; conditions: Homo sapiens, MCF7; 72 h, CCK-8 kit
Procedure: as §1, §2

[8] = test system: MDA-MB-231; assay: Cytotoxicity / anti-proliferation assay (CCK-8), MDA-MB-231; format: cell-based; conditions: Homo sapiens, 72 h, CCK-8 kit, read-out: EC50 MDA-MB-231
Procedure: A549, MDA-MB-231, HCT-8, MCF-7, and HEK293 cells were seeded at 8000-10000 cells (100 μl) in white 96-well plates and pre-incubate the plate for 24 h under standard cell culture conditions, respectively. Then the cells were exposed to the different inhibitors with various concentrations for 72 h. Finally, 10 μl of CCK-8 kit solution was added to each well and incubated for 3-4 hours under standard cell culture conditions, and the 96 well plates were measured the absorbance at 450 nm using Perkin-Elmer Wallac Victor ^3V 1420 multi label plate reader (Perkin-Elmer, Wellesley, USA). EC50s were calculated using GraphPad Prizm statistical package with sigmoidal variable slope dose response curve fit.
as §2, with “inhibitors. Several cell lines (MDA-MB-231, MCF-7, A549 and HCT-8) were incubated and then treated with varying concentrations of the inhibitors for 72 h, respectively.” for “inhibitors.”

Question: CN1CCCN(c2nc(NC3CCN(Cc4ccccc4)CC3)c3ccc(OCCCCCCC(=O)NO)cc3n2)CC1 [Compound 30] was tested. Which EC50 [1] did it give?
Answer: > 100 µM

Question: And the inhibition at 5 µM [2]?
Answer: 17.9 ± 5.51%

Question: And the EC50 [3]?
Answer: > 100 µM

Question: And the IC50 [4]?
Answer: > 100 µM

Question: And the IC50 [5]?
Answer: > 100 µM

Question: And the IC50 [6]?
Answer: > 100 µM

Question: What about the EC50 [7] of the same compound?
Answer: > 100 µM

Question: What about the EC50 [8] of the same compound?
Answer: 24 ± 3.64 µM
